The target in one experiment is T1, Mtb GuaB2 (Mycobacterium tuberculosis, UniProt P9WKI7).
T1 construct: made in house
In words: Biochemical assay of GuaB2 inhibition. The conditions noted are these: duplicate, mean. On the procedure:
The Mtb ortholog of the enzyme was recombinantly expressed, purified and assayed as previously described. Inhibition was determined at 0.1 mM, using 12 μg GuaB2 with the addition of 0.5% CHAPS. Each assay was normalised for DMSO concentration. Data was recorded in duplicate and analysed using Graphpad Prism 6.0.

Experiment [1] deals with M. bovis BCG pMV261-guaB2. Nature of the experiment: microbe, parasite or virus in culture. It is filed as cell-based, Mycobacterium bovis BCG. The conditions noted are these: for IC50: Mycobacterium tuberculosis variant bovis BCG, BCG, 168 h, 7 days, read-out: pXC50 Mean for GuaB2 (converted).
For a further experiment, the system named is M. bovis BCG pMV261. Nature of the experiment: microbe, parasite or virus in culture. It is filed as cell-based. The conditions noted are these: Mycobacterium tuberculosis variant bovis BCG, 168 h, read-out: pXC50 for Empty Vector (converted).
The test system of a further experiment is M. tuberculosis H37Rv. Nature of the experiment: MIC against H37Rv. It is filed as cell-based. The conditions noted are these: Mycobacterium tuberculosis. An excerpt: Table 1 Z’ and pXC50 values for dose response validation of GuaB2 targeting compounds.
The mark [2] stands for this setting: 0.1 mM compound, 12 μg GuaB2, 0.5% CHAPS.
The mark [3] stands for this setting: read-out: % Biochemical Inhibition of Mtb GuaB2, 0.1 mM compound, 12 μg GuaB2, 0.5% CHAPS.
Where [4] appears, read: 0.1 mM compound, 12 μg GuaB2, 0.5% CHAPS, read-out: % Biochemical Inhibition of Mtb GuaB2.

In brackets after ≈: the same amount, converted by molar mass. Several values for one entry are separate records, joined by “and”; a condition that tells them apart may be missing. Equal entries are not always repeated. Where two headings read alike, the source gives them in different places.

T1 sequence (P9WKI7 whole entry, looked up): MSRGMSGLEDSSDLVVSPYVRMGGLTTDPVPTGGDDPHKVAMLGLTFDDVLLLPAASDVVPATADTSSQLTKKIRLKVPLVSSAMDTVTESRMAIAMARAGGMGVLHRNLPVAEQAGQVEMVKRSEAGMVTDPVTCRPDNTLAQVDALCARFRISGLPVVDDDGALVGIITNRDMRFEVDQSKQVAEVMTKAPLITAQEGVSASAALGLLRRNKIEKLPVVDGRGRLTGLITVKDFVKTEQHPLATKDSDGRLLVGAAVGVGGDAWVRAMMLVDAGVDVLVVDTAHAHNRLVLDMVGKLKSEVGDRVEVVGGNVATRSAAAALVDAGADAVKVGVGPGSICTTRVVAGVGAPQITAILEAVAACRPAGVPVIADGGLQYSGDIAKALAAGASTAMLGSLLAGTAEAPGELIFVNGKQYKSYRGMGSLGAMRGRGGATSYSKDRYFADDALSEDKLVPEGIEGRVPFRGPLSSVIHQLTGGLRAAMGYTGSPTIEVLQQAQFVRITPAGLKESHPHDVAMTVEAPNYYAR

Regarding `Clc1cc2ccccc2c(N2CCNCC2)n1` [JAGC_6, 3-chloro-1-(piperazin-1-yl)isoquinoline], on Mtb GuaB2 (setting [2]), the “% Biochemical Inhibition of Mtb GuaB2” value was 15.44%. Further, the inhibition at 100 µM on Mtb GuaB2 (setting [3]) amounted to 12.3%. In experiment [1], the “Shift pIC50” value is 1.07 and the IC50 is 44.7 µM. In addition, in the experiment with M. bovis BCG pMV261, the IC50 was 3.8 µM. Besides, in the experiment with M. tuberculosis H37Rv, the MIC is greater than 80 µM.

Regarding `COc1ccc(Cl)c2sc(N(CCN(C)C)C(C)=O)nc12` [JAGC_4, N-(7-chloro-4-methoxybenzo[d]thiazol-2-yl)-N-(2-(dimethylamino)ethyl)acetamide], the inhibition at 100 µM on Mtb GuaB2 (setting [4]) amounted to 20.7%. In experiment [1], the “Shift pIC50” value is 0.64 and the IC50 is no less than 100 µM. The IC50 in the experiment on M. bovis BCG pMV261 was 22.9 µM. For the same compound, the MIC against M. tuberculosis H37Rv was greater than 80 µM.

As to `CC1CCC(NC(=O)Nc2ccc3snnc3c2)CC1` (stereo not drawn) [JAGC_7, 1-(benzo[d][1,2,3]thiadiazol-5-yl)-3-(4-methylcyclohexyl)urea], the inhibition at 100 µM at Mtb GuaB2 (setting [4]) stood at 12.2%. Besides, in experiment [1], the “Shift pIC50” value is 0.37 and the IC50 is 9.77 µM. Besides, the IC50 in the experiment on M. bovis BCG pMV261 is 4.17 µM. This compound also returned an MIC in the experiment on M. tuberculosis H37Rv of 50 µM (≈ 14.5 µg/mL).

Take `CCOc1ccc(C(=O)Nc2cc(Cl)c3c(c2)CNCC3)cc1C(C)=O` [JAGC_2, 3-acetyl-N-(5-chloro-1,2,3,4-tetrahydroisoquinolin-7-yl)-4-ethoxybenzamide]: the “% Biochemical Inhibition of Mtb GuaB2” value at Mtb GuaB2 (setting [2]) stood at 26.53%. For the same compound, the inhibition at 100 µM on Mtb GuaB2 (setting [3]) was 26.5%. In experiment [1], the “Shift pIC50” value is reported as 0.84 and the IC50 was 57.5 µM. In addition, the IC50 in the experiment on M. bovis BCG pMV261 was 8.32 µM. The MIC with M. tuberculosis H37Rv was greater than 80 µM.

As for `CC(C)CCN(c1ccc(C#N)c(Cl)c1)[C@H]1CCNC1` [JAGC_5, (S)-2-chloro-4-(isopentyl(pyrrolidin-3-yl)amino)benzonitrile], the inhibition at 100 µM on Mtb GuaB2 (setting [4]) is 20.6%. In experiment [1], the “Shift pIC50” value worked out at 0.94 and the IC50 is 38 µM. Besides, the IC50 in the experiment on M. bovis BCG pMV261 was 4.37 µM. Besides, the MIC against M. tuberculosis H37Rv is greater than 100 µM.

Take `NNC(=O)c1ccncc1` [INH, isoniazid, reference compound]: the “% Biochemical Inhibition of Mtb GuaB2” value at Mtb GuaB2 (setting [2]) is −9% and −8.88%.

Consider `Cc1ccc([N+](=O)[O-])cc1NC(=O)Nc1cccc(Cl)c1` [DPU-2, reference compound], for which, at Mtb GuaB2 (setting [4]), the inhibition at 100 µM was determined as 44.6%.

Turning to `CC(=O)Nc1ccc(-c2ccc3ncc(N4CCN(C)CC4)nc3c2)cn1` [JAGC_1, N-(5-(3-(4-methylpiperazin-1-yl)quinoxalin-6-yl)pyridin-2-yl)acetamide], the inhibition at 100 µM on Mtb GuaB2 (setting [4]) was 23.1%. Besides, in experiment [1], the “Shift pIC50” value was found to be 1.05 and the IC50 was no less than 100 µM. Moreover, the IC50 in the experiment with M. bovis BCG pMV261 was 8.91 µM. In the experiment on M. tuberculosis H37Rv, this compound had an MIC greater than 80 µM.

For `COC(=O)c1c(NC(=O)N2CCNCC2)sc2c1CC(C)(C)OC2` [JAGC_3, methyl 5,5-dimethyl-2-(piperazine-1-carboxamido)-4,7-dihydro-5H-thieno[2,3-c]pyran-3-carboxylate], the inhibition at 100 µM on Mtb GuaB2 (setting [4]) was determined as 21.8%. In addition, in experiment [1], the “Shift pIC50” value is listed as 0.99 and the IC50 was no less than 100 µM. The IC50 with M. bovis BCG pMV261 was 10.2 µM. For the same compound, the MIC in the experiment with M. tuberculosis H37Rv is greater than 80 µM.

By inhibition is commonly meant how much of the control response was suppressed. Broadly, the MIC is the least concentration at which growth counts as inhibited.

Values taken from PMC5159837, “Novel inhibitors of Mycobacterium tuberculosis GuaB2 identified by a target based high-throughput phenotypic screen” (Scientific Reports, 2016).
